Assay results reported in patent US20200276181A1, “THIENOISOQUINOLINES AND THEIR DERIVATIVES FOR TARGETING TUBULIN, CH-TOG, AURORA A KINASE, TPX2, CDK5RAP2 AND/OR ASPM” (VALORBEC, SEC, priority 2017, published 2020).
One block for each molecule: values may come before it.

Key:
A549 cells [1] = experiment: Spindle morphology, DAPI and tubulin staining; assay type: cell-based, human; details: 300 nM, 4 hours
Protocol: FIG. 1A) is a line graph showing changes in the percentage of viable HFF-1, HeLa, A549 and HCT 116 cells after treatment with a range of C75 concentrations for 3 population doubling times (N=3). […] FIG. 1C) is a line graph showing the percentage of HeLa and HFF1 cells in mitosis after treatment with various concentrations of C75 for 8 hours. The bars indicate standard deviation. FIG. 1D) is a series of images showing cells that were fixed and co-stained for tubulin (microtubules) and DAPI (DNA). […] The scale bar for the cells is 10 μm. […] FIG. 1F) is a cartoon schematic showing the key features of a metaphase cell.

Aurora A kinase = Aurora A kinase (Homo sapiens, UniProt O14965); details: in vitro; cited from earlier work
A549 cells [2] = experiment: IC50 of derivatives (Table 5); assay type: cell-based, human; details: Table 5, cell line only named in b213 (A549)
A549 cells [3] = experiment: Viability IC50, high-throughput automated analysis (Table 4); assay type: cell-based; details: Homo sapiens, 3 population doubling times
Protocol: (§1) FIG. 1A) is a line graph showing changes in the percentage of viable HFF-1, HeLa, A549 and HCT 116 cells after treatment with a range of C75 concentrations for 3 population doubling times (N=3). […] There were more rounded mitotic cells after C75 treatment in comparison to the control. FIG. 1C) is a line graph showing the percentage of HeLa and HFF1 cells in mitosis after treatment with various concentrations of C75 for 8 hours. The bars indicate standard deviation. FIG. 1D) is a series of images showing cells that were fixed and co-stained for tubulin (microtubules) and DAPI (DNA). Treatment of HeLa cells with 300 nM C75 caused the mitotic spindles to be disorganized, while they were not affected in HFF1 cells. […] The scale bar for the cells is 10 μm. […] FIG. 1F) is a cartoon schematic showing the key features of a metaphase cell.
(§2) The images in FIG. 1B) show fields of view of HeLa cells treated with (dimethyl sulfoxide) DMSO or 500 nM of C75. […] Higher concentrations of C75 caused spindle phenotypes in HFF1 cells, but they were quite different in comparison to HeLa cells (FIG. 1D).

HeLa cells = experiment: as above; assay type: cell-based; details: Homo sapiens, 3 population doubling times
Protocol: as §1, §2

HCT 116 cells = experiment: as above; assay type: cell-based; details: Homo sapiens, 3 population doubling times
Protocol: as §1, §2

HFF-1 cells = experiment: as above; assay type: cell-based; details: Homo sapiens, 3 population doubling times
Protocol: as §1, §2

[4] = tested on: HeLa (cervical adenocarcinoma) cells; experiment: Cell viability IC50 (Table 3); assay type: cell-based, human
Protocol: (§3) To date, 30 variants with different structural modifications have been made. […] In particular, it is shown that C75 causes death in multiple cancer cells with IC50 values in the 100-400 nM range, including breast cancers (MCF7, BT549), lung cancer (A549), colorectal cancer (HCT116) in addition to HeLa cells (cervical cancer).

[5] = tested on: MCF-7 (mammary gland carcinoma) cells; experiment: Cell viability IC50 (Table 3); assay type: cell-based, human; details: MCF-7 cells
Protocol: as §3

[6] = tested on: MCF7, BT549, A549, HCT116, HeLa cells; experiment: Viability in cancer vs non-cancer cell lines, summary of Table 3; assay type: cell-based, human
Protocol: as §3

[7] = tested on: HFF1 (fibroblast) non-cancer cells; experiment: Cell viability IC50 (Table 3); assay type: cell-based; details: HFF-1 non-cancer cells
Protocol: as §3

[8] = tested on: BT549 (breast ductal carcinoma) cells; experiment: Cell viability IC50 (Table 3); assay type: cell-based, human
Protocol: as §3

[9] = tested on: HeLa cells with lower levels of endogenous ch-TOG (ch-TOG RNAi); experiment: Spindle phenotypes with ch-TOG RNAi; assay type: cell-based, human; details: 200 nM C75 or 20 nM colchicine
Source text: FIG. 7B) is a bar graph showing the proportion of phenotypes of the HeLa cells observed in the different conditions listed in 7A) (bipolar spindles in light grey; bipolar spindles with misaligned chromosomes in dark grey; multipolar/fragmented spindles in hatched lines; monopolar spindles in black).

[10] = tested on: HeLa cells with lower levels of endogenous MCAK (MCAK RNAi); experiment: Spindle phenotypes with MCAK RNAi; assay type: cell-based, human; details: 300 nM C75 or 30 nM colchicine
Source text: FIG. 8B) is a bar graph showing the proportion of spindle phenotypes in HeLa cells treated as in 8A).
Since this is unique to C75, and ch-TOG RNAi was previously shown to be suppressed (partially) by MCAK RNAi, supporting C75's role in targeting ch-TOG or a component of the pathway.

HeLa cells in metaphase = experiment: Short treatment and washout, spindle recovery; assay type: cell-based, human; details: 5 minutes treatment, washout, imaged after 40 minutes
Source text: For each condition, 20,000 cells were counted per replicate (N=3). Line graphs (right) were made to better illustrate the relative changes in the cell cycle phases for the different treatments. Bars show standard deviation. The asterisks indicate the first statistically significant change in the G0/G1 and G2/M populations determined by a two-way ANOVA with a post-hoc Tukey's multiple comparisons test using 95% confidence intervals. FIG. 2B) is a line graph showing the percentage of HCT116 (p53−/−) cells, A549 cells, HeLa cells and H1299 cells in mitosis after treatment with various concentrations of C75 for one population doubling time. All of the cell lines show an increase in the proportion of mitotic cells after treatment with 200 nM C75. The bars indicate standard deviation. […]
C75 was also tested for efficacy in different cancer cell lines. […] To further assess the role of C75 in disrupting spindles, HeLa cells were treated with 300 nM C75 for 4 hours and the spindle phenotypes were analyzed in more detail (FIG. 2E). […] To assess the affect of C75 on centrosomes, HeLa cells were treated with C75 or nocodazole (a drug that causes microtubule depolymerization as a control) for a short period of time (5 minutes), then the drugs were removed and the cells were analyzed for spindle phenotypes (schematic in FIG. 2G). […]

[11] = target: Purified free alpha and beta tubulin dimers (Homo sapiens, UniProt P07437+Q71U36); details: comparison drugs; cited from earlier work

Aurora A kinase, sequence (O14965 whole entry): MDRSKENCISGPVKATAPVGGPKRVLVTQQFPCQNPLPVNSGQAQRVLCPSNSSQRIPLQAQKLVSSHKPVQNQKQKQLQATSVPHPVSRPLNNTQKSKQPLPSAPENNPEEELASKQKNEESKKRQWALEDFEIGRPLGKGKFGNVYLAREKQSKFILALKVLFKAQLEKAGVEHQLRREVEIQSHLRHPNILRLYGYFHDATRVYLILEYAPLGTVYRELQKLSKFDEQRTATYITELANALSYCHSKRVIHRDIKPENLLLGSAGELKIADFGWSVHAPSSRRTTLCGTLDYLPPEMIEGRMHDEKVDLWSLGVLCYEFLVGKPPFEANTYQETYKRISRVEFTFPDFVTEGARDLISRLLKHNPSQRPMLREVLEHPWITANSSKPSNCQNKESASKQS

SMILES: COc1cc(Nc2ncc3c(n2)-c2ccc(Cl)cc2C(c2c(F)cccc2OC)=NC3)ccc1C(=O)O [Alisertib, reference compound]
spindle phenotype (A549 cells [1]): mitotic arrest and spindle phenotypes similar to what was observed for C75
affinity for Aurora A kinase (Aurora A kinase): ~1 nM

IC50 (A549 cells [2]; Homo sapiens): > 1 µM
IC50 (A549 cells [3]): > 1 µM
IC50 (HeLa cells): > 1 µM
IC50 (HCT 116 cells): > 1 µM
SMILES: O=S(=O)(c1cccs1)N1Cc2ccccc2-c2sccc21 [Compound C87]
IC50 (HFF-1 cells): > 1 µM

IC50 (A549 cells [2]): 0.781 µM
IC50 [4]: 0.177 µM
IC50 [5]: 0.149 µM
SMILES: COc1ccc(S(=O)(=O)N2Cc3ccccc3-c3sccc32)cc1 [Compound C90]

IC50 (A549 cells [2]): 0.433 µM
IC50 [4]: 0.07 µM
IC50 [5]: 0.086 µM
IC50 [8]: 0.178 µM
SMILES: COc1ccc(S(=O)(=O)N2Cc3ccccc3-c3sc(I)cc32)cc1 [Compound C207]
efficacy (effect on viability) in cancer cells vs. non-cancer cells [6]: higher efficacy
IC50 [7]: 0.15 µM

SMILES: COc1cc2c(c(OC)c1OC)-c1ccc(OC)c(=O)cc1[C@@H](NC(C)=O)CC2 [colchicine, reference compound]
interaction with ch-TOG RNAi, fragmented spindle phenotype [9]: synergistic
suppression of fragmented spindle phenotype by MCAK RNAi [10]: not

SMILES: COC(=O)Nc1nc2ccc(C(=O)c3cccs3)cc2[nH]1 [nocodazole, reference compound]
spindles reformed after drug removal (HeLa cells in metaphase): bipolar spindles reformed

SMILES: CC[C@]1(O)C[C@@H]2CN(CCc3c([nH]c4ccccc34)[C@@](C(=O)OC)(c3cc4c(cc3OC)N(C)[C@H]3[C@@](O)(C(=O)OC)[C@H](OC(C)=O)[C@]5(CC)C=CCN6CC[C@]43[C@@H]65)C2)C1 [vinblastine]
concentration causing a similar decrease of polymerization [11]: ~5 µM
